These results are taken from patent US9321768B2, “Indoles as respiratory syncytial virus antiviral agents” (JANSSEN SCIENCES IRELAND UC, priority 2010, dated 2016).

Structures are written as SMILES. Like-named read-outs stand apart in the source and are kept apart here.

One data set relates to rgRSV224 virus. The experiment in a line: microbe, parasite or virus in culture. The format is cell-based, respiratory syncytial virus (RSV). The settings on record: for SI CC50/EC50: ratio of HeLa CC50 to rgRSV224 EC50; for EC50: read-out: WT activity EC50. As to the method:
(§1) Black 96-well clear-bottom microtiter plates (Corning, Amsterdam, The Netherlands) were filled in duplicate using a customized robot system with serial 4-fold dilutions of compound in a final volume of 50 μl culture medium [RPMI medium without phenol red, 10% FBS, 0.04% gentamycin (50 mg/ml) and 0.5% DMSO]. Then, 100 μl of a HeLa cell suspension (5×10^4 cells/ml) in culture medium was added to each well followed by the addition of 50 μl rgRSV224 (MOI=0.02) virus in culture medium using a multidrop dispenser (Thermo Scientific, Erembodegem, Belgium). rgRSV224 virus is an engineered virus that includes an additional GFP gene (Hallak et al, 2000) and was in-licensed from the NIH (Bethesda, Md., USA). Medium, virus- and mockinfected controls were included in each test. Cells were incubated at 37° C. in a 5% CO2 atmosphere. Three days post-virus exposure, viral replication was quantified by measuring GFP expression in the cells by a MSM laser microscope (Tibotec, Beerse, Belgium). The EC50 was defined as the 50% inhibitory concentration for GFP expression. In parallel, compounds were incubated for three days in a set of white 96-well microtitier plates (Corning) and the cytotoxicity of compounds in HeLa cells was determined by measuring the ATP content of the cells using the ATPlite kit (PerkinElmer, Zaventem, Belgium) according to the manufacturer's instructions. The CC50 was defined as the 50% concentration for cytotoxicity.

The nature of data set [1]: Cytotoxicity in HeLa cells, ATP content (ATPlite kit). In kind it is cell-based. Conditions: human. As to the method:
as §1

Where [2] appears, read: rgRSV224 (MOI=0.02) in HeLa cells, GFP expression three days post-virus exposure.
Where [3] appears, read: human respiratory syncytial virus, HeLa, 72 h.
Where [4] appears, read: HeLa cells, three days incubation, ATP content, read-out: Toxicity CC50.

On to `CC(C)(O)CCCn1c(Cn2c(=O)n(C3CC3)c3ccncc32)cc2cc(Cl)ccc21` [Compound P72], for which the “SI CC50/EC50” value in the data set on rgRSV224 virus was 24273. For the same compound, the 50% effective concentration (EC50) with rgRSV224 virus (setting [2]) turned out to be 1.58 nM.
In the case of `CC(C)CCn1c(Cn2c(=O)n(C3CC3)c3ccncc32)c(C(=O)NS(C)(=O)=O)c2ccccc21` [Compound 19, 2-((1-cyclopropyl-2-oxo-1H-imidazo[4,5-c]pyridin-3 (2H)-yl)methyl)-1-isopentyl-N-(methylsulfonyl)-1H-indole-3-carboxamide], the EC50 with rgRSV224 virus (setting [3]) was found to be 3210 nM. Further, the CC50 at 3 days in data set [1] (setting [4]) was over 9840 nM.
Consider `CS(=O)(=O)CCCn1c(Cn2c(=O)n(C3CC3)c3ccncc32)cc2cc(C(F)(F)F)ccc21` [Compound P23], for which the “SI CC50/EC50” value with rgRSV224 virus is 6557. Also, the concentration giving a half-maximal response (EC50) in the data set with rgRSV224 virus (setting [2]) is 7.37 nM.
The like results for `CC(C)(O)CCCn1c(Cn2c(=O)n(C3COC3)c3ccncc32)cc2cc(Cl)ccc21` [Compound P73] were, in that order, 15070 and 3.16 nM.
The like results for `N#CCCCn1c(Cn2c(=O)n(C3CC3)c3ccccc32)cc2cc(Cl)ccc21` [Compound P35] were, in that order, 5353 and 3.14 nM.
`COc1ccc2c(c1)cc(Cn1c(=O)n(C3CC3)c3ccncc31)n2CCCCO` [Compound 10, 1-Cyclopropyl-3-((1-(4-hydroxybutyl)-5-methoxy-1H-indol-2-yl)methyl)-1H-imidazo[4,5-c]pyridin-2(3H)-one]: the EC50 with rgRSV224 virus (setting [3]) amounted to 38.3 nM. The compound also displayed a CC50 at 3 days in data set [1] of over 9840 nM.
Turning to `O=c1n(Cc2cc3cc(Br)ccc3n2CCCC(F)(F)F)c2cnccc2n1C1CC1` [Compound P32], the “SI CC50/EC50” value in the data set on rgRSV224 virus is listed as 53514. Also, the EC50 in the data set with rgRSV224 virus (setting [2]) was determined as 0.34 nM.
The like results for `O=c1n(Cc2cc3cc(Br)ccc3n2CCCC(F)(F)F)c2ccccc2n1C1CC1` [Compound P31] were, in that order, 3446 and 12.1 nM.
Regarding `CC(C)CCn1c(Cn2c(=O)n(C3CC3)c3ccncc32)c(C(N)=O)c2ccccc21` [Compound 14, 2-((1-cyclopropyl-2-oxo-1H-imidazo[4,5-c]pyridin-3(2H)-yl)methyl)-1-isopentyl-1H-indole-3-carboxamide], in the data set with rgRSV224 virus (setting [3]), the EC50 amounted to 4.51 nM. Moreover, the cytotoxic concentration (CC50) at 3 days in data set [1] (setting [4]) was over 24600 nM.
For the compound `COc1ccc2c(c1)n(Cc1cc3cc(F)ccc3n1CCCS(C)(=O)=O)c(=O)n2C1CC1` [Compound P41], the “SI CC50/EC50” value in the data set with rgRSV224 virus is 886. Also, in the data set with rgRSV224 virus (setting [2]), the concentration giving a half-maximal response (EC50) amounted to 63.4 nM.
For `CS(=O)(=O)CCCn1c(Cn2c(=O)n(C3COC3)c3ccncc32)cc2ccccc21` [Compound P24], in that order: over 3065 and 32.6 nM.
The like results for `O=c1n(Cc2cc3cc(Cl)ccc3n2CCCCF)c2cnccc2n1C1CC1` [Compound P30] were, in that order, 24457 and 0.733 nM.
For `CS(=O)(=O)CCCn1c(Cn2c(=O)n(CC(F)(F)F)c3ccncc32)cc2cc(Cl)ccc21` [Compound P55], in that order: over 258982 and under 0.157 nM.
For `O=c1n(Cc2cc3cc(Cl)ccc3n2CCCCO)c2cnccc2n1C1CC1` [Compound 7, 3-((5-Chloro-1-(4-hydroxybutyl)-1H-indol-2-yl)methyl)-1-cyclopropyl-1H-imidazo[4,5-c]pyridin-2(3H)-one], in the data set with rgRSV224 virus (setting [3]), the EC50 is 2.24 nM. Besides, the midpoint of cytotoxicity in data set [1], the CC50 at 3 days, lay at 47600 nM.
The like results for `N#CCCCCn1c(Cn2c(=O)n(C3CC3)c3ccncc32)cc2cc(Br)ccc21` [Compound 3, 5-((5-bromo-2-(1-cyclopropyl-2-oxo-1H-imidazo[4,5-c]pyridin-3(2H)-yl)methyl)-1H-indol-1-yl)pentanenitrile] were, in that order, 0.452 nM and over 9840 nM.
Regarding `NC(=O)c1c(Cn2c(=O)n(C3CC3)c3ccncc32)n(CCCCF)c2ccc(Cl)cc12` [Compound P54, 5-chloro-2-((1-cyclopropyl-2-oxo-1H-imidazo[4,5-c]pyridin-3(2H)-yl)methyl)-1-(4-fluorobutyl)-1H-indole-3-carboxamide], the concentration giving a half-maximal response (EC50) in the data set with rgRSV224 virus (setting [3]) came to 0.0528 nM. For the same compound, in the data set on rgRSV224 virus, the “SI CC50/EC50” value is recorded as over 603587.
As to `O=c1n(Cc2cc3cc(F)ccc3n2CCCCF)c2ccccc2n1C1CC1` [Compound P34], the “SI CC50/EC50” value with rgRSV224 virus is over 398. Further, in the data set with rgRSV224 virus (setting [2]), the EC50 is 251 nM.
The like results for `NC(=O)c1c(Cn2c(=O)n(C3CC3)c3ccc(F)cc32)n(CCCC(F)(F)F)c2ccc(Cl)cc12` [Compound P65] were, in that order, over 45348 and 1.1 nM.
For the compound `O=c1n(Cc2cc3cc(Br)ccc3n2CCCCO)c2cnccc2n1C1CC1` [Compound 4, 3-((5-bromo-1-(4-hydroxybutyl)-1H-indol-2-yl)methyl)-1-cyclopropyl-1H-imidazo[4,5-c]pyridin-2(3H)-one], the concentration giving a half-maximal response (EC50) in the data set with rgRSV224 virus (setting [3]) is 1.12 nM. In addition, the CC50 at 3 days in data set [1] (setting [4]) came out at 48700 nM.
`CC(C)(O)CCCn1c(Cn2c(=O)n(CC(F)(F)F)c3ccncc32)cc2cc(Cl)ccc21` [Compound P74]: the “SI CC50/EC50” value in the data set on rgRSV224 virus is reported as 15708. For the same compound, the half-maximal effective concentration (EC50) in the data set on rgRSV224 virus (setting [2]) was 3.16 nM.
Regarding `CS(=O)(=O)CCCn1c(Cn2c(=O)n(C3CC3)c3ccncc32)cc2cc(Br)ccc21` [Compound 2, 3-((5-bromo-1-(3-(methylsulfonyl)propyl)-1H-indol-2-yl)methyl)-1-cyclopropyl-1H-imidazo[4,5-c]pyridine-2(3H)-one], in the data set with rgRSV224 virus (setting [3]), the 50% effective concentration (EC50) was found to be 0.288 nM. The compound also had a CC50 at 3 days in data set [1] of over 9840 nM.
For `CS(=O)(=O)CCCn1c(Cn2c(=O)n(C3CC3)c3ccc(F)cc32)cc2cc(Cl)ccc21` [Compound 8, 3-((5-Chloro-1-(3-(methylsulfonyl)propyl)-1H-indol-2-yl)methyl)-1-cyclopropyl-5-fluoro-1H-benzo[d]imidazol-2(3H)-one], in that order: 3.79 nM and over 9840 nM.
For `CS(=O)(=O)CCCn1c(Cn2c(=O)n(C3CC3)c3ccccc32)cc2cc(Br)ccc21` [Compound P21], the “SI CC50/EC50” value in the data set with rgRSV224 virus was found to be 6322. Moreover, the half-maximal effective concentration (EC50) with rgRSV224 virus (setting [2]) was found to be 3.88 nM.
The like results for `O=c1n(Cc2cc3cc(F)ccc3n2CCCCF)c2cnccc2n1C1CC1` [Compound P29] were, in that order, 2149 and 13.8 nM.
The like results for `O=C(NC1CC1)c1c(Cn2c(=O)n(C3CC3)c3ccncc32)n(CCCC(F)(F)F)c2ccc(Cl)cc12` [Compound P68] were, in that order, 249 and 12.6 nM.
As to `CNC(=O)c1c(Cn2c(=O)n(C3CC3)c3ccncc32)n(CCCC(F)(F)F)c2ccc(Cl)cc12` [Compound P64], the “SI CC50/EC50” value in the data set on rgRSV224 virus is over 3896. Further, the EC50 in the data set with rgRSV224 virus (setting [2]) is 6.42 nM.
The like results for `CS(=O)(=O)CCCn1c(Cn2c(=O)n(C3CC3)c3ccncc32)cc2cc(F)ccc21` [Compound P20] were, in that order, 15206 and 4.07 nM.
On to `CS(=O)(=O)CCCn1c(Cn2c(=O)n(CC(F)(F)F)c3ccc(F)cc32)cc2cc(Cl)ccc21` [Compound P50], for which the “SI CC50/EC50” value with rgRSV224 virus was 5176. The EC50 in the data set on rgRSV224 virus (setting [2]) stood at 4.8 nM.
Turning to `CS(=O)(=O)CCCn1c(Cn2c(=O)n(C3CC3)c3ccc(F)cc32)cc2cc(F)ccc21` [Compound P27], the “SI CC50/EC50” value with rgRSV224 virus stood at 664. Moreover, the EC50 in the data set on rgRSV224 virus (setting [2]) turned out to be 36 nM.
The like results for `NC(=O)c1c(Cn2c(=O)n(C3CC3)c3ccc(F)cc32)n(CCCCF)c2ccc(Cl)cc12` [Compound P63] were, in that order, over 89869 and 1.11 nM.
On to `CS(=O)(=O)CCCn1c(Cn2c(=O)n(C3CC3)c3ccncc32)cc2ccccc21` [Compound P25], for which, in the data set on rgRSV224 virus, the “SI CC50/EC50” value is on record as over 10945. Besides, the concentration for a half-maximal effect (EC50) in the data set on rgRSV224 virus (setting [2]) was determined as 9.14 nM.
For `CS(=O)(=O)CCCn1c(Cn2c(=O)n(C3CC3)c3ccccc32)cc2cc(Cl)ccc21` [Compound P40], in that order: over 29923 and 2.94 nM.
As to `CS(=O)(=O)CCCn1c(Cn2c(=O)n(C3CC3)c3ccccc32)cc2ccccc21` [Compound P28], in the data set on rgRSV224 virus, the “SI CC50/EC50” value is given as 184. For the same compound, in the data set with rgRSV224 virus (setting [2]), the EC50 stood at 348 nM.
For `O=c1n(Cc2cc3cc(Cl)ccc3n2CCCCF)c2cnccc2n1C1COC1` [Compound P66], in that order: 21581 and 1.25 nM.
The like results for `O=c1n(Cc2cc3cc(Cl)ccc3n2CCCC(F)(F)F)c2cnccc2n1C1COC1` [Compound P67] were, in that order, over 85461 and 1.25 nM.
For `CS(=O)(=O)CCCn1c(Cn2c(=O)n(C3CC3)c3ccccc32)cc2cc(F)ccc21` [Compound P26], in that order: 2270 and 22.6 nM.
On to `CS(=O)(=O)CCCn1c(Cn2c(=O)n(C3COC3)c3ccncc32)cc2cc(F)ccc21` [Compound P22], for which the “SI CC50/EC50” value with rgRSV224 virus is on record as over 4200. For the same compound, the EC50 with rgRSV224 virus (setting [2]) was found to be 23.8 nM.
Take `N#CCCCn1c(Cn2c(=O)n(CC(F)(F)F)c3ccncc32)cc2cc(Cl)ccc21` [Compound P62]: in the data set on rgRSV224 virus, the “SI CC50/EC50” value was determined as 81459. Also, in the data set on rgRSV224 virus (setting [2]), the concentration giving a half-maximal response (EC50) is 0.539 nM.
For `O=c1n(Cc2cc3cc(Cl)ccc3n2CCCN2CCOCC2)c2cnccc2n1C1CC1` [Compound P58], in that order: 7416 and 5.8 nM.
The like results for `N#CCCCn1c(Cn2c(=O)n(C3CC3)c3ccncc32)cc2cc(Cl)ccc21` [Compound P33] were, in that order, 190625 and 0.266 nM.

As usually defined, the EC50 is the midpoint of the concentration-response curve. As a reminder, the CC50 is the concentration giving 50% cytotoxicity.
